The target of one series is T1, oestrogen receptor (Homo sapiens, UniProt P03372).
T1 construct: MELN cells [hER-stably transfected model of the human breast cancer MCF-7 cells]; endogenous in cells; host or cells: MELN cells (MCF-7 human breast cancer cells)
T1 sequence (P03372 1-595): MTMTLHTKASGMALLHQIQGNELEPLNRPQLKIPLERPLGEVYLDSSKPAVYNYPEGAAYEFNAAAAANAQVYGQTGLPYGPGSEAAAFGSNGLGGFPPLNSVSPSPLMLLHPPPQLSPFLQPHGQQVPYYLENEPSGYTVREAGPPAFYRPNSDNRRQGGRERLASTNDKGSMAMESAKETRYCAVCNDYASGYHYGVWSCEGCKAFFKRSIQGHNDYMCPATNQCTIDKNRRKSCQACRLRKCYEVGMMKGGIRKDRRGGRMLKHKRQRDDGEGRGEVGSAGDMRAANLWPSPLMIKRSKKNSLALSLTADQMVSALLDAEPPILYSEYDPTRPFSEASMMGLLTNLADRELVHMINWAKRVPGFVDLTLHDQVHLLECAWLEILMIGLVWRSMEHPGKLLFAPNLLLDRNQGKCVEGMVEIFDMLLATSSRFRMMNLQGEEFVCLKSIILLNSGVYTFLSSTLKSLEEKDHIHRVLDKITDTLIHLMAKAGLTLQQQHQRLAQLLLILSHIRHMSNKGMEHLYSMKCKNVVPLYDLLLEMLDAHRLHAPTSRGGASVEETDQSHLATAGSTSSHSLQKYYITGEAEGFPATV
The series is described as follows: Oestrogenic activity testing using MELN cells (ER-transactivation assay). It is filed as cell-based. The note with it: hER-stably transfected MCF-7. As to the method:
Various phenolic compounds, such as phenolic Mannich bases may also pose a risk of acting as oestrogen agonists, this is thought to be due to structural similarity between the phenolic group and the phenolic group present in oestrogen itself. […] The tests were performed using MELN cells [hER-stably transfected model of the human breast cancer MCF-7 cells].

In another series the test system is MELN cells. Format: cell-based, human. The method, then:
The use of bisphenol A in epoxy systems is often avoided for this reason. Various phenolic compounds, such as phenolic Mannich bases may also pose a risk of acting as oestrogen agonists, this is thought to be due to structural similarity between the phenolic group and the phenolic group present in oestrogen itself. […]. The tests were performed using MELN cells [hER-stably transfected model of the human breast cancer MCF-7 cells]. The use of MELN cells for screening cytotoxicity and oestrogenic activity is a standard test known in the art, for example, as described in Berckmans P, Leppens H, Vangenechten C, Witters H., “Screening of endocrine disrupting chemicals with MELN cells, an ER-transactivation assay combined with cytotoxicity assessment”, Toxicol In Vitro. 2007, 21(7), 1262-7.

The nature of series [1]: Viscosity at 25° C., ASTM D2556-14(2018). The note with it: undiluted curative composition / product as prepared. It is filed as physicochemical. The method, then:
This material was then diluted with benzyl alcohol in order to reduce the viscosity. The relationship between the viscosity (as measured by ASTM D2556-14(2018)) and the vol % dilution with benzyl alcohol is shown in FIG. 1. […] The properties of a 63:37 vol/vol mixture of salicylamide Mannich base C:benzyl alcohol are shown below in Table 7.

For the molecule `NCCNCCNCCNCc1cc(CNCCNCCNCCN)c(O)c(C(=O)NCCNCCNCCN)c1` [Salicylamide Mannich Base A], on oestrogen receptor, the Agonist response result was “Negative”. The Cytotoxicity result with MELN cells is reported as “No”. In addition, the “Viscosity at 25° C.” value in series [1] came to 1130 m · Pas.
For the molecule `C[C@]12CC[C@@H]3c4ccc(O)cc4CC[C@H]3[C@@H]1CC[C@@H]2O` [17β- oestradiol, 17β-oestradiol], in the series with MELN cells, the Cytotoxicity entry is listed as “No”.
For the molecule `CC(C)(c1ccc(O)cc1)c1ccc(O)cc1` [Bisphenol A, bisphenol A], at oestrogen receptor, the Agonist response entry is “Positive”. For the same molecule, in the series on MELN cells, the Cytotoxicity entry is on record as “No”.
